The IC50 is the midpoint of a concentration-inhibition curve.

For series [1], the system named is serum total cholesterol. The series can be described thus: Hypocholesterolemic effect on cholesterol feeding rats. The note with it: Rattus norvegicus, oral, high cholesterol diet rats, read-out: % reduction of serum total cholesterol; for inhibition in vivo at 30 mg/kg: 30 mg/kg/day; for inhibition in vivo at 10 mg/kg: 10 mg/kg/day. It counts as in vivo, male Wistar rats. On the procedure: Hypocholesterolemic effect on cholesterol feeding rats. Male Wistar rats aged 7 weeks old were fed a diet (CE®) supplemented with 2%(w/w) cholesterol, 0.5%(w/w) sodium cholate, 10%(w/w) lard, 0.2%(w/w) propylthiouracyl and 5%(w/w) sucrose, for 3 days. Following 3 days, the compounds of the present invention were administered orally, and the animals were maintained with the high cholesterol diet. On the next day of final drug administration, blood was drown and serum total cholesterol-levels were measured enzymatically by autoanalyzer. CL277082 was used as a reference compound.

For series [2], the target named is T1, ACAT (Rattus norvegicus, UniProt Q7TQM4).
T1 construct: Liver microsomes as an enzyme sample of ACAT were prepared from overnight-fasted male rats; from tissue; host or cells: liver of overnight-fasted male rats, 6 weeks old; microsomes
T1 sequence (Q7TQM4 1-524): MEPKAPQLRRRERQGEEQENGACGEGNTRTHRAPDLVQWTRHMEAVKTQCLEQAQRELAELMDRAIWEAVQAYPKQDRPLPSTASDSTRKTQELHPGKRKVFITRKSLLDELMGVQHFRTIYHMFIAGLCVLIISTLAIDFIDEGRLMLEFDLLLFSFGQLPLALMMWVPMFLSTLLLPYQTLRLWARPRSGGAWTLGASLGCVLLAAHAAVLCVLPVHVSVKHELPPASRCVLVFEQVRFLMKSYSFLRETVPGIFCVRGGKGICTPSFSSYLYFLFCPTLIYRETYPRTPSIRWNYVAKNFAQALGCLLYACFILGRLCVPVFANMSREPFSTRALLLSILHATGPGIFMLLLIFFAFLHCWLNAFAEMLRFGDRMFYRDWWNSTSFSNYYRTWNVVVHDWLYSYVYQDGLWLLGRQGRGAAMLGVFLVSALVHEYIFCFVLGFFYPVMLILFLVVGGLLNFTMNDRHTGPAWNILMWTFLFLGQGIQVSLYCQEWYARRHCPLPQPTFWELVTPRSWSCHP
The series can be described thus: Inhibitory effect on microsomal ACAT activity in rat liver. The series is classed as biochemical. The conditions noted are these: rat liver microsomes; read-out: IC50 (50% inhibition of cholesterol esterification). A general note: Liver microsomes are a subcellular fraction often used to study metabolism.

Series [3] relates to male Wistar rats. Nature of the series: Acute toxicity. It counts as in vivo. The note with it: single oral dose 1 g/kg, 7 days observation. An excerpt:
The pyrimidine derivatives of the present invention were examined for acute toxicity by using male Wistar rats fasted over night aged 7 weeks old.

The subject of series [4] is macrophages. The series can be described thus: Inhibitory effect on cholesteryl ester accumulation in macrophages. The series is classed as cell-based, mouse (ddy-family male mice). The note with it: Macrophage, read-out: Inhibition activity on cholesteryl ester accumulation (IC50 grade). On the procedure: Inhibitory effect on cholesteryl ester accumulation in macrophages.
Namely resident peritoneal cells suspended in phosphate-buffered saline (PBS) were plated in plastic Petri dishes (35 mm×10 mm) at a density of 2×10^6 cells. The adherent macrophages were cultured overnight at 37° C. in Dalbecco's modified Eagle medium (DME) containing 10% fetal bovine serum (FCS) under humidified 5% CO2. […] After discarding the medium, each macrophage monolayer was washed with PBS and lipids were extracted with hexane/isopropyl alcohol (3:2). Cholesteryl esters in the extract were separated by thin-layer chromatography and the radioactivity was measured by liquid scintillation counter.

The mark [5] stands for this setting: mouse peritoneal macrophages, β-VLDL, [3H]oleic acid, 3 hrs.

Read-outs that look alike come from different tables or passages of the source.

On to `CCCN(CCCC(=O)Nc1c(S)ncnc1N(CCC)c1ccccc1)c1ccccc1` [Example 149, N-[4-mercapto-6-(N-phenyl-N-propylamino)pyrimidin-5-yl]-(N-phenyl-N-propylamino)butanamide], for which, in series [1], the inhibition in vivo at 30 mg/kg amounted to 21%. Further, the IC50 in series [2] came to 140 nM.

With `CCCCCCN(CCCC(=O)Nc1c(SC)nc(C)nc1N(CC)CC)c1ccccc1OC` [Example 240, N-[4-(N,N-diethylamino)-2-methyl-6-methylthiopyrimidin-5-yl]-4-[N-hexyl-N-(2-methoxyphenyl)amino]butanamide], the IC50 in series [2] was found to be 73 nM. The “lethal incident (acute toxicity)” value in series [3] is listed as “no lethal incident was observed”.

On to `CCCCCCN(CCCC(=O)Nc1c(SC)nc(C)nc1N(CC)CC)c1ccccc1` [Example 225, N-[4-(N,N-diethylamino)-2-methyl-6-methylthiopyrimidin-5-yl]-4-(N-hexyl-N-phenylamino)butanamide], for which the IC50 was 10 to 100 nM in series [4] (setting [5]) and 19 nM in series [2]. In addition, the inhibition in vivo at 10 mg/kg in series [1] was 64%.

In the case of `CCCCCCN(CCCC(=O)Nc1c(SC)ncnc1N(CC)CC)c1ccccc1` [Example 232, N-[4-(N,N-diethylamino)-6-methylthiopyrimidin-5-yl]-4-(N-hexyl-N-phenylamino)butanamide], the inhibition in vivo at 10 mg/kg in series [1] was 65%. The “lethal incident (acute toxicity)” value in series [3] is listed as “no lethal incident was observed”.

`CCCCCCCN(Cc1ccccc1)c1nc(C)nc(S)c1NC(=O)CCCN(CCC)c1ccccc1` [Example 148, N-[4-(N-benzyl-N-heptylamino)-6-mercapto-2-methylpyrimidin-5-yl]-4-(N-phenyl-N propylamino)butanamide]: the IC50 is 10 to 100 nM in series [4] (setting [5]) and 55 nM in series [2].

For `CCCCCCN(CCCC(=O)Nc1c(SC(C)C)nc(C)nc1N(CC)CC)c1ccccc1` [Example 262, N-[4-(N,N-dietylamino)-6-isopropylthio-2-methylpyrimidin-5-yl]-4-(N-hexyl-N-phenylamino)butanamide], the inhibition in vivo at 10 mg/kg in series [1] was determined as 53%. In series [3], the “lethal incident (acute toxicity)” value is on record as “no lethal incident was observed”.

For the molecule `CCCCCCCN(Cc1ccc(CC(C)(C)C)cc1)C(=O)Nc1ccc(F)cc1F` [CL277082, (N'-2,4-difluorophenyl)-N-[[4-(2,2-dimethylpropyl)phenyl]methyl]-N-heptylurea, reference compound], in series [4] (Mus musculus, 3 h), the IC50 was 1000 to 10000 nM. Further, the inhibition in vivo at 30 mg/kg in series [1] is 52%.

For `CCCCCCCN(Cc1ccccc1)c1nc(C)nc(SC)c1NC(=O)CCCCN(CCC)c1ccccc1` [Example 249, N-[4-(N-benzyl-N-heptylamino)-2-methyl-6-methylthiopyrimidin-5-yl]-5-(N-phenyl-N-propylamino)pentanamide], the IC50 in series [4] (setting [5]) was 100 to 1000 nM; in series [2], 160 nM.

Take `CCCN(CCCC(=O)Nc1c(SC)nc(C)nc1N(CC)CC)c1ccccc1` [Example 220, N-[4-(N,N-diethylamino)-2-methyl-6-methylthiopyrimidin-5-yl]-4-(N-phenyl-N-propylamino)butanamide]: the IC50 in series [4] (setting [5]) is 100 to 1000 nM; in series [2], 52 nM. The inhibition in vivo at 30 mg/kg in series [1] was 23%.

Regarding `CCCCCCN(CCCC(=O)Nc1c(SC)nc(OC)nc1N(CC)CC)c1ccccc1` [Example 233, N-[4-(N,N-diethylamino)-2-methoxy-6-methylthiopyrimidin-5-yl]-4-(N-hexyl-N-phenylamino)butanamide], the inhibition in vivo at 10 mg/kg in series [1] is 76%. The “lethal incident (acute toxicity)” value in series [3] is “no lethal incident was observed”.

On to `CCCN(CCCC(=O)Nc1c(SC)nc(C)nc1N(CC)CC)c1ccc(OC)cc1` [Example 238, N-[4-(N,N-diethylamino)-2-methyl-6-methylthiopyrimidin-5-yl]-4-[N-(4-methoxyphenyl)-N-propylamino)butanamide], for which the results for the IC50 in series [4] (setting [5]) and in series [2] were 100 to 1000 nM and 110 nM, respectively. In series [1], the inhibition in vivo at 10 mg/kg turned out to be 65%.

Regarding `CCCCCCCN(Cc1ccccc1)c1nc(C)nc(SC)c1NC(=O)CCCN(CCC)c1ccccc1` [Example 223, N-[4-(N-benzyl-N-heptylamino)-2-methyl-6-methylthiopyrimidin-5-yl]-4-(N-phenyl-N-propylamino)butanamide], the figures for the IC50 in series [4] (setting [5]) and in series [2] were 10 to 100 nM and 64 nM, respectively. Moreover, in series [1], the inhibition in vivo at 10 mg/kg is 70%.

Take `CCCCN(CCCC)c1nc(C)nc(OCC)c1NC(=O)CCCCN(CCC)c1ccccc1` [Example 196, N-[4-(N,N-dibutylamino)-6-ethoxy-2-methylpyrimidin-5-yl]-5-(N-phenyl-N-propylamino)pentanamide]: the inhibition in vivo at 10 mg/kg in series [1] was determined as 48%. In addition, in series [3], the “lethal incident (acute toxicity)” value is reported as “no lethal incident was observed”.

As to `CCCCN(CCCC)c1nc(C)nc(SC)c1NC(=O)CCCN(CCC)c1ccccc1` [Example 221, N-[4-(N,N-dibutylamino)-2-methyl-6-methylthiopyrimidin-5-yl]-4-(N-phenyl-N-propylamino)butanamide], the IC50 in series [4] (setting [5]) is 10 to 100 nM; in series [2] it was 29 nM.

With `CCCN(CCCC(=O)Nc1c(SC)nc(C)nc1N(C)C)c1ccccc1` [Example 219, N-[4-(N,N-dimethylamino)-2-methyl-6-methylthiopyrimidin-5-yl]-4-(N-phenyl-N-propylamino)butanamide], the 50% inhibitory concentration (IC50) in series [4] (setting [5]) was 100 to 1000 nM; in series [2], 130 nM.

For `CCN(CC)c1nc(C)nc(SC)c1NC(=O)CCCN(C)c1ccccc1` [Example 224, N-[4-(N,N-diethylamino)-2-methyl-6-methylthiopyrimidin-5-yl]-4-(N-methyl-N-phenylamino)butanamide], the IC50 in series [2] worked out at 220 nM.

On to `CCCN(CCCC(=O)Nc1c(S)nc(C)nc1N(CC)CC)c1ccc(F)cc1F` [Example 180, N-[4-(N,N-diethylamino)-6-mercapto-2-methylpyrimidin-5-yl]-4-[N-(2,4-difluorophenyl)-N-propylamino]butanamide], for which the IC50 in series [2] worked out at 200 nM.

As to `CCCN(CCCC(=O)Nc1c(SCc2ccccc2)nc(C)nc1N(CCC)c1ccccc1)c1ccccc1` [Example 258, N-[4-benzylthio-2-methyl-6-(N-phenyl-N-propylamino)pyrimidin-5-yl]-4-(N-phenyl-N-propylamino)butanamide], in series [2], the IC50 stood at 230 nM.

Take `CCCCCCN(CCCC(=O)Nc1c(SC)nc(C)nc1N1CCOCC1)c1ccccc1` [Example 231, N-[2-methyl-4-methylthio-6-morpholinopyrimidin-5-yl]-4-(N-hexyl-N-phenylamino)butanamide]: in series [3], the “lethal incident (acute toxicity)” value is given as “no lethal incident was observed”.

`CCCN(CCCCC(=O)Nc1c(SC)nc(C)nc1N(CC)CC)c1ccccc1` [Example 245, N-[4-(N,N-diethylamino)-2-methyl-6-methylthiopyrimidin-5-yl]-5-(N-phenyl-N-propylamino)pentanamide]: in series [2], the IC50 is 64 nM.

As for `CCCN(CCCC(=O)Nc1c(SC)nc(C)nc1N(CC)CC)c1ccc(F)cc1F` [Example 241, N-[4-(N,N-diethylamino)-2-methyl-6-methylthiopyrimidin-5-yl]-4-[N-(2,4-difluorophenyl)-N-propylamino]butanamide], the half-maximal inhibitory concentration (IC50) in series [2] came out at 76 nM.

As to `CCCN(CCC(=O)Nc1c(SC)nc(C)nc1N(CC)CC)c1ccccc1` [Example 216, N-[4-(N,N-diethylamino)-2-methyl-6-methylthiopyrimidin-5-yl]-3-(N-phenyl-N-propylamino)propionamide], the inhibition in vivo at 100 mg/kg in series [1] (100 mg/kg/day) worked out at 33%. In series [2], the half-maximal inhibitory concentration (IC50) stood at 120 nM.

Source of the values: patent publication US5397781A, “Pyrimidine derivatives” (Mochida Pharmaceutical Company, Limited, priority 1992, dated 1995).
